In general, pIC50 refers to the IC50 on a negative log10 scale, so that one unit is a factor of ten.

IC50 data for four compounds are collected here from PubChem BioAssay AID651592 (Sanford-Burnham Center for Chemical Genomics, 2012).

Test [1] concerns the target Interleukin-8 (Homo sapiens) (UniProt P10145). As to the kind of experiment: inhibitors of NFkB activation in CF airway cells, SAR follow-up, KKLEB cells, panel, IL8 HTRF, NFkB-GFP (AID 651592).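 Note: immortalized cystic fibrosis airway epithelial KKLEB cells with an NF-kB GFP reporter.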 Particulars: PAF/TNFa-induced NFkB-GFP / IL8 HTRF.
Test in test [2]: as above
The settings on record: PAF/TNFa-induced NFkB-GFP / IL8 HTRF, CF-PAF assay.

A further test deals with IL8. The test is described as above. Particulars: PAF/TNFa-induced NFkB-GFP / IL8 HTRF, mean of runs, mean IC50 across panel replicates. On the technique in general: In TR-FRET formats the signal depends on donor and acceptor labels being close together.
[3] abbreviates: mean of runs, mean IC50 across panel replicates.

The structures appear in SMILES notation. pIC50: −log10 of the molar value.

Chain of Interleukin-8 (Homo sapiens) (P10145 whole entry, looked up): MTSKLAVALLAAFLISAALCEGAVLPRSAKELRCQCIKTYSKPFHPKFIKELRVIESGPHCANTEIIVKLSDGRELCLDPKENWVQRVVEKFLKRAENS

For `O=C(Nc1ccc(N2CCN(C(=O)c3ccccc3Cl)CC2)cc1)c1cncc(Br)c1`, the pIC50 in test [1] (IL8, PAF-induced, run 1) is 5.12; in test [1] (IL8, PAF-induced, run 2) it was 5.08; in test [1] (IL8, PAF-induced, run 3), 4.95; in test [1] (IL8, PAF-induced, run 4), 5.50; in test [1] (IL8, PAF-induced, run 5), 5.24; in test [1] (IL8, PAF-induced, run 6), 4.77. Moreover, the pIC50 was 6.56 in test [1] (IL8, TNFa-induced, run 1); 5.67 in test [1] (IL8, TNFa-induced, run 2); 5.26 in test [1] (IL8, TNFa-induced, run 3); under 4.18 in test [1] (IL8, TNFa-induced, run 4); 5.08 in test [1] (IL8, TNFa-induced, run 5); 4.85 in test [1] (IL8, TNFa-induced, run 6). Besides, the pIC50 in test [2] (setting [3]) is 5.56; in test [2] (run 1), 5.70; in test [2] (run 2) it was 5.60; in test [2] (run 3) it was 5.58; in test [2] (run 4), 5.57; in test [2] (run 5), 5.52. For the same compound, the values for the pIC50 (in test [2] (run 6); in the test with IL8 (PAF-induced); with IL8 (TNFa-induced)) were 5.44, 5.05 and 4.79, respectively.
Regarding `O=C(Nc1ccc(N2CCN(C(=O)c3ccccc3F)CC2)cc1)c1ccccn1`, the pIC50 in test [1] (IL8, PAF-induced, run 1) was under 4.18; in test [1] (IL8, PAF-induced, run 2), under 4.18; in test [1] (IL8, PAF-induced, run 3) it was under 4.18; in test [1] (IL8, PAF-induced, run 4) it was under 4.18; in test [1] (IL8, PAF-induced, run 5) it was under 4.18; in test [1] (IL8, PAF-induced, run 6), under 4.18. The pIC50 is under 4.18 in test [1] (IL8, TNFa-induced, run 1); under 4.18 in test [1] (IL8, TNFa-induced, run 2); under 4.18 in test [1] (IL8, TNFa-induced, run 3); under 4.18 in test [1] (IL8, TNFa-induced, run 4); under 4.18 in test [1] (IL8, TNFa-induced, run 5); under 4.18 in test [1] (IL8, TNFa-induced, run 6). Further, the negative logarithm of the IC50 (pIC50) in test [2] (setting [3]) is 4.34; in test [2] (run 1), 4.49; in test [2] (run 2), 4.40; in test [2] (run 3), 4.19; in test [2] (run 4), under 4.18; in test [2] (run 5), under 4.18. Also, the pIC50 (in test [2] (run 6); with IL8 (PAF-induced); in the test with IL8 (TNFa-induced)) was under 4.18 throughout.
Consider `O=C(Nc1ccc(N2CCN(C(=O)c3ccccc3)CC2)cc1)c1cncc(Br)c1`, for which the pIC50 was 5.36 in test [1] (IL8, PAF-induced, run 1); 5.12 in test [1] (IL8, PAF-induced, run 2); 5.01 in test [1] (IL8, PAF-induced, run 3); 6.05 in test [1] (IL8, PAF-induced, run 4); 5.13 in test [1] (IL8, PAF-induced, run 5); 4.61 in test [1] (IL8, PAF-induced, run 6). The pIC50 in test [1] (IL8, TNFa-induced, run 1) was under 4.18; in test [1] (IL8, TNFa-induced, run 2), under 4.18; in test [1] (IL8, TNFa-induced, run 3) it was 4.45; in test [1] (IL8, TNFa-induced, run 4) it was under 4.18; in test [1] (IL8, TNFa-induced, run 5) it was under 4.18; in test [1] (IL8, TNFa-induced, run 6) it was under 4.18. In addition, the pIC50 was 5.43 in test [2] (setting [3]); 5.57 in test [2] (run 1); 5.50 in test [2] (run 2); 5.46 in test [2] (run 3); 5.53 in test [2] (run 4); 5.35 in test [2] (run 5). Further, the pIC50 in test [2] (run 6) is 5.24; with IL8 (PAF-induced), 5.04; in the test on IL8 (TNFa-induced), 4.22.
For `O=C(Nc1ccc(N2CCN(C(=O)c3ccc(F)cc3)CC2)cc1)c1cncc(Br)c1`, the pIC50 in test [1] (IL8, PAF-induced, run 1) is 5.06; in test [1] (IL8, PAF-induced, run 2) it was 5.01; in test [1] (IL8, PAF-induced, run 3), 4.60; in test [1] (IL8, PAF-induced, run 4), 5.69; in test [1] (IL8, PAF-induced, run 5), 5.45; in test [1] (IL8, PAF-induced, run 6), 5.10. Moreover, the pIC50 in test [1] (IL8, TNFa-induced, run 1) is under 4.18; in test [1] (IL8, TNFa-induced, run 2), under 4.18; in test [1] (IL8, TNFa-induced, run 3), under 4.18; in test [1] (IL8, TNFa-induced, run 4), under 4.18; in test [1] (IL8, TNFa-induced, run 5) it was 4.99; in test [1] (IL8, TNFa-induced, run 6) it was 4.60. The pIC50 in test [2] (setting [3]) was 5.52; in test [2] (run 1), 5.60; in test [2] (run 2), 5.52; in test [2] (run 3), 5.48; in test [2] (run 4) it was 5.64; in test [2] (run 5), 5.51. Further, the pIC50 in test [2] (run 6) is 5.42; with IL8 (PAF-induced) it was 5.02; in the test on IL8 (TNFa-induced), 4.30.
